Measurements: US20250179059A1 (The Regents of the University of California, priority 2021, published 2025)

How the values were obtained:
[1] = target: T1, human BRD4 bromodomain II (Homo sapiens, UniProt O60885); assay: Bromodomain binding assay (AlphaScreen), BRD4 BDII; conditions: AlphaScreen assay, Table C2; read-out: BRD4 BDII IC50
T1 construct: human BRD4 bromodomain II [based on Genbank NM_058243, residues 349-460]; host or cells: E. coli
In short: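 AlphaScreen competition with biotinylated H4 peptide (aa 1-21, K5/K8/K12/K16Ac), using nickel-chelate acceptor and streptavidin donor beads. Targets were His6-BRD4 BDI (44-170) or BDII (349-460), with a 30 min compound preincubation over a 10-point 3-fold series. IC50 was fitted from percentage peptide binding.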

[2] = tested on: human SKM-1 acute myeloid leukemia cells; assay: SKM-1 antiproliferation cell-based assay (ATPlite); conditions: Homo sapiens, SKM-1, 96 h, SKM-1 antiproliferation assay, 4 days, Table C2
In short: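 Log-phase cells in RPMI 1640/15% FBS were seeded at 34722 cells/mL and exposed for 4 days to nine-concentration DMSO serial dilutions in triplicate. Viability was read as ATP luminescence (ATPlite 1step), and IC50 values came from variable-slope non-linear regression.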

Work on `Cn1ccn(-c2ccc(-c3cc(F)cc(-c4ccnc(N5CC6CC6(O)C5)c4)c3O)cc2Cl)c1=O` (stereo not drawn) [Example 770, 1-(3-chloro-5′-fluoro-2′-hydroxy-3′-(2-(1-hydroxy-3-azabicylco[3.1.0]hexan-3-yl)pyridin-4-yl)-[1,1′-biphenyl]-4-yl)-3-methyl-1H-imidazol-2(3H)-one] yielded an IC50 [1] of 1 to 10 nM and a GI50 [2] of 30 to 300 nM.

With `Cn1ccn(-c2ccc(-c3cc(F)cc(-c4cccc(C#CC(C)(C)N)c4)c3O)cc2Cl)c1=O` [Example 771, 1-(3″-(3-amino-3-methylbut-1-yn-1-yl)-3-chloro-5′-fluoro-2′-hydroxy-[1,1′:3′,1″-terphenyl]-4-yl)-3-methyl-1H-imidazol-2(3H)-one] the IC50 [1] was 1 to 10 nM and the GI50 [2] was 30 to 300 nM.

`Cn1ccn(-c2ccc(-c3cc(F)cc(-c4cccc(C#CC(C)(C)O)c4)c3O)cc2Cl)c1=O` [Example 772, 1-(3-chloro-5′-fluoro-2′-hydroxy-3″-(3-hydroxy-3-methylbut-1-yn-1-yl)-[1,1′:3′,1″-terphenyl]-4-yl)-3-methyl-1H-imidazol-2(3H)-one] showed an IC50 [1] of 10 to 100 nM and a GI50 [2] of 300 to 3000 nM.

`Cn1ccn(-c2ccc(-c3cc(F)cc(-c4ccnc(N5CCC(C)(C(N)=O)C5)c4)c3O)cc2Cl)c1=O` (stereo not drawn) [Example 773, 1-(4-(3′-chloro-5-fluoro-2-hydroxy-4′-(3-methyl-2-oxo-2,3-dihydro-1H-imidazol-1-yl)-[1,1′-biphenyl]-3-yl)pyridin-2-yl)-3-methylpyrrolidine-3-carboxamide] showed an IC50 [1] of 1 to 10 nM and a GI50 [2] of 30 to 300 nM.

Compound `CC(=O)N[C@@]1(C)CCN(c2cc(-c3cc(F)cc(-c4ccc(-n5ccn(C)c5=O)c(Cl)c4)c3O)cc(=O)n2C)C1` [Example 774, (S)-N-(1-(4-(3′-chloro-5-fluoro-2-hydroxy-4′-(3-methyl-2-oxo-2,3-dihydro-1H-imidazol-1-yl)-[1,1′-biphenyl]-3-yl)-1-methyl-6-oxo-1,6-dihydropyridin-2-yl)-3-methylpyrrolidin-3-yl)acetamide] has an IC50 [1] of 1 to 10 nM and a GI50 [2] of 30 to 300 nM.

Work on `Cn1ccn(-c2ccc(-c3cc(F)cc(-c4ccc(F)c(N5CC[C@@](C)(O)C5)c4)c3O)cc2Cl)c1=O` [Example 775, (R)-1-(3-chloro-4″,5′-difluoro-2′-hydroxy-3″-(3-hydroxy-3-methylpyrrolidin-1-yl)-[1,1′:3′,1″-terphenyl]-4-yl)-3-methyl-1H-imidazol-2(3H)-one] yielded an IC50 [1] of 1 to 10 nM and a GI50 [2] of 30 to 300 nM.

`Cn1ccn(-c2ccc(-c3cc(F)cc(-c4ccnc(N5CCC(C)(NC(=O)OC(C)(C)C)C5)c4)c3O)cc2Cl)c1=O` (stereo not drawn) [Example 776, tert-butyl (1-(4-(3′-chloro-5-fluoro-2-hydroxy-4′-(3-methyl-2-oxo-2,3-dihydro-1H-imidazol-1-yl)-[1,1′-biphenyl]-3-yl)pyridin-2-yl)-3-methylpyrrolidin-3-yl)carbamate] gave an IC50 [1] of 10 to 100 nM and a GI50 [2] of 30 to 300 nM.

For `Cn1ccn(-c2ccc(-c3cc(F)cc(-c4cc(N5CC[C@@](C)(O)C5)n(C)c(=O)c4)c3O)cc2Cl)c1=O` [Example 777, (R)-4-(3′-chloro-5-fluoro-2-hydroxy-4′-(3-methyl-2-oxo-2,3-dihydro-1H-imidazol-1-yl)-[1,1′-biphenyl]-3-yl)-6-(3-hydroxy-3-methylpyrrolidin-1-yl)-1-methylpyridin-2(1H)-one], the IC50 [1] was 0.01 to 1 nM and the GI50 [2] was 0.3 to 30 nM.

`Cn1ccn(-c2ccc(-c3cc(F)cc(-c4ccnc(N5CCC(C)(N)CC5)c4)c3O)cc2Cl)c1=O` [Example 778] gave an IC50 [1] of 1 to 10 nM and a GI50 [2] of 0.3 to 30 nM.

With `Cn1ccn(-c2ccc(-c3cc(F)cc(-c4ccnc(N5CC(C)(O)C6(CC6)C5)c4)c3O)cc2Cl)c1=O` (stereo not drawn) [Example 779, 1-(3-chloro-5′-fluoro-2′-hydroxy-3′-(2-(7-hydroxy-7-methyl-5-azaspiro[2.4]heptan-5-yl)pyridin-4-yl)-[1,1′-biphenyl]-4-yl)-3-methyl-1H-imidazol-2(3H)-one] the IC50 [1] was 1 to 10 nM and the GI50 [2] was 0.3 to 30 nM.

Compound `CC(=O)NC1(C)C2CCC1CN(c1cc(-c3cc(F)cc(-c4ccc(-n5ccn(C)c5=O)c(Cl)c4)c3O)ccn1)C2` (stereo not drawn) [Example 780, N-(3-(4-(3′-chloro-5-fluoro-2-hydroxy-4′-(3-methyl-2-oxo-2,3-dihydro-1H-imidazol-1-yl)-[1,1′-biphenyl]-3-yl)pyridin-2-yl)-8-methyl-3-azabicyclo[3.2.1]octan-8-yl)acetamide] has an IC50 [1] of 1 to 10 nM and a GI50 [2] of 30 to 300 nM.

Compound `Cn1ccn(-c2ccc(-c3cc(F)cc(-c4ccnc(N5C[C@@H](O)[C@H](F)C5)c4)c3O)cc2Cl)c1=O` [Example 781, 1-(3-chloro-5′-fluoro-3′-(2-((3R,4R)-3-fluoro-4-hydroxypyrrolidin-1-yl)pyridin-4-yl)-2′-hydroxy-[1,1′-biphenyl]-4-yl)-3-methyl-1H-imidazol-2(3H)-one] has an IC50 [1] of 1 to 10 nM and a GI50 [2] of 30 to 300 nM.

In the case of `CC(=O)NC1(C)CCN(c2cc(-c3cc(F)cc(-c4ccc(-n5ccn(C)c5=O)c(Cl)c4)c3O)ccn2)C1` (stereo not drawn) [Example 782, N-(1-(4-(3′-chloro-5-fluoro-2-hydroxy-4′-(3-methyl-2-oxo-2,3-dihydro-1H-imidazol-1-yl)-[1,1′-biphenyl]-3-yl)pyridin-2-yl)-3-methylpyrrolidin-3-yl)acetamide], the IC50 [1] is reported as 0.01 to 1 nM and the GI50 [2] is reported as 30 to 300 nM.

`Cn1ccn(-c2ccc(-c3cc(F)cc(-c4ccnc(N5CC(C)(C)C(C)(O)C5)c4)c3O)cc2Cl)c1=O` (stereo not drawn) [Example 783, 1-(3-chloro-5′-fluoro-2′-hydroxy-3′-(2-(3-hydroxy-3,4,4-trimethylpyrrolidin-1-yl)pyridin-4-yl)-[1,1′-biphenyl]-4-yl)-3-methyl-1H-imidazol-2(3H)-one] showed an IC50 [1] of 0.01 to 1 nM and a GI50 [2] of 0.3 to 30 nM.

In the case of `Cn1ccn(-c2ccc(-c3cc(F)cc(-c4ccnc(N5CCC(O)(C(F)(F)F)C5)c4)c3O)cc2Cl)c1=O` (stereo not drawn) [Example 784, 1-(3-chloro-5′-fluoro-2′-hydroxy-3′-(2-(3-hydroxy-3-(trifluoromethyl)pyrrolidin-1-yl)pyridin-4-yl)-[1,1′-biphenyl]-4-yl)-3-methyl-1H-imidazol-2(3H)-one], the IC50 [1] is reported as 1 to 10 nM and the GI50 [2] is reported as 30 to 300 nM.

Compound `Cn1ccn(-c2ccc(-c3cc(F)cc(-c4ccnc(N5CC6CCC(C5)C6(C)O)c4)c3O)cc2Cl)c1=O` (stereo not drawn) [Example 785, 1-(3-chloro-5′-fluoro-2′-hydroxy-3′-(2-(8-hydroxy-8-methyl-3-azabicyclo[3.2.1]octan-3-yl)pyridin-4-yl)-[1,1′-biphenyl]-4-yl)-3-methyl-1H-imidazol-2(3H)-one] has an IC50 [1] of 1 to 10 nM and a GI50 [2] of 30 to 300 nM.

`Cn1ccn(-c2ccc(-c3cc(F)cc(-c4ccnc(N5C[C@H](O)[C@@H](F)C5)c4)c3O)cc2Cl)c1=O` [Example 786, 1-(3-chloro-5′-fluoro-3′-(2-((3S,4S)-3-fluoro-4-hydroxypyrrolidin-1-yl)pyridin-4-yl)-2′-hydroxy-[1,1′-biphenyl]-4-yl)-3-methyl-1H-imidazol-2(3H)-one] was tested, and the IC50 [1] was 1 to 10 nM and the GI50 [2] was 30 to 300 nM.

With `CC(C)N1CCN(c2cc(-c3cc(F)cc(-c4ccc(-n5ccn(C)c5=O)c(Cl)c4)c3O)cnc2Cl)CC1` [Example 787, 1-(3-chloro-3′-(6-chloro-5-(4-isopropylpiperazin-1-yl)pyridin-3-yl)-5′-fluoro-2′-hydroxy-[1,1′-biphenyl]-4-yl)-3-methyl-1H-imidazol-2(3H)-one] the IC50 [1] was 0.01 to 1 nM and the GI50 [2] was 0.3 to 30 nM.

In the case of `CN(C)C1(c2cccc(-c3cc(F)cc(-c4ccc(-n5ccn(C)c5=O)c(Cl)c4)c3O)c2)CC1` [Example 788, 1-(3-chloro-3″-(1-(dimethylamino)cyclopropyl)-5′-fluoro-2′-hydroxy-[1,1′:3′,1″-terphenyl]-4-yl)-3-methyl-1H-imidazol-2(3H)-one], the IC50 [1] is reported as 10 to 100 nM and the GI50 [2] is reported as 300 to 3000 nM.

Work on `Cn1ccn(-c2ccc(-c3cc(F)cc(-c4cnc(Cl)c(N5CCN(C(C)(C)C)CC5)c4)c3O)cc2Cl)c1=O` [Example 789, 1-(3′-(5-(4-(tert-butyl)piperazin-1-yl)-6-chloropyridin-3-yl)-3-chloro-5′-fluoro-2′-hydroxy-[1,1′-biphenyl]-4-yl)-3-methyl-1H-imidazol-2(3H)-one] yielded an IC50 [1] of 1 to 10 nM and a GI50 [2] of 0.3 to 30 nM.

Work on `CC(=O)NC1(C)CCN(c2cc(-c3cc(F)cc(-c4ccc(-n5ccn(C)c5=O)c(Cl)c4)c3O)ccn2)CC1` [Example 790, N-(1-(4-(3′-chloro-5-fluoro-2-hydroxy-4′-(3-methyl-2-oxo-2,3-dihydro-1H-imidazol-1-yl)-[1,1′-biphenyl]-3-yl)pyridin-2-yl)-4-methylpiperidin-4-yl)acetamide] yielded an IC50 [1] of 0.01 to 1 nM and a GI50 [2] of 0.3 to 30 nM.

`Cc1ncc(-c2cc(F)cc(-c3ccc(-n4ccn(C)c4=O)c(Cl)c3)c2O)cc1N1CCN(C(C)(C)C)CC1` [Example 791, 1-(3′-(5-(4-(tert-butyl)piperazin-1-yl)-6-methylpyridin-3-yl)-3-chloro-5′-fluoro-2′-hydroxy-[1,1′-biphenyl]-4-yl)-3-methyl-1,3-dihydro-2H-imidazol-2-one] was tested, and the IC50 [1] was 0.01 to 1 nM and the GI50 [2] was 0.3 to 30 nM.

Work on `Cn1ccn(-c2ccc(-c3cc(F)cc(-c4ccnc(N5CCC(C)(NS(C)(=O)=O)C5)c4)c3O)cc2Cl)c1=O` (stereo not drawn) [Example 792, N-(1-(4-(3′-chloro-5-fluoro-2-hydroxy-4′-(3-methyl-2-oxo-2,3-dihydro-1H-imidazol-1-yl)-[1,1′-biphenyl]-3-yl)pyridin-2-yl)-3-methylpyrrolidin-3-yl)methanesulfonamide] yielded an IC50 [1] greater than 100 nM and a GI50 [2] of 300 to 3000 nM.

`CC(=O)N[C@]1(C)CCN(c2cncc(-c3cc(F)cc(-c4ccc(-n5ccn(C)c5=O)c(Cl)c4)c3O)c2)C1` [Example 793, (R)-N-(1-(5-(3′-chloro-5-fluoro-2-hydroxy-4′-(3-methyl-2-oxo-2,3-dihydro-1H-imidazol-1-yl)-[1,1′-biphenyl]-3-yl)pyridin-3-yl)-3-methylpyrrolidin-3-yl)acetamide] was tested, and the IC50 [1] was 0.01 to 1 nM and the GI50 [2] was 0.3 to 30 nM.
